Among the test systems are EKVX NSCLC; MALME-3M melanoma; NCI/ADR-RES ovarian; SK-MEL-28 melanoma; SN12C renal; SNB-19 CNS; SW-620 colon; U251 CNS; CCRF-CEM leukemia; OVCAR-3 ovarian; MCF7 breast.
What all share (test): NCI anticancer screen, dose series, 48 h

Molecules are shown by their SMILES.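 Method: 48-hour compound exposure of cells in 96-well plates, five concentrations, linear interpolation of endpoints. GI50 = concentration required for 50% inhibition of growth. The concentration for full growth arrest is given as TGI.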

As for `O=c1[nH]c2[nH]c(=S)[nH]c(=S)c2[nH]1`, the TGI with EKVX NSCLC, in the test on MALME-3M melanoma, with NCI/ADR-RES ovarian, in the test with SK-MEL-28 melanoma, in the test with SN12C renal and in the test on SNB-19 CNS was more than 100 µM each time. The TGI in the test with SW-620 colon and in the test on U251 CNS was more than 100 µM throughout.
Consider `COc1ccc2nc3cc(Cl)ccc3c(NC(C)CCCN(CCCl)CCCl)c2c1` (configuration not stated), for which the TGI stood at 1.12 µM with CCRF-CEM leukemia; 18.2 µM with EKVX NSCLC; 9.63 µM with MALME-3M melanoma; 6.87 µM in the test with OVCAR-3 ovarian; 18.4 µM in the test on SK-MEL-28 melanoma; 8.66 µM in the test with SN12C renal. In addition, the TGI with SNB-19 CNS was found to be 7.15 µM; in the test with SW-620 colon, 2.07 µM; with U251 CNS, 5.65 µM.
Take `O=C1C(Cl)N(c2ccccc2Cl)C1c1c[nH]c2ccccc12` (configuration not stated): the TGI in the test on CCRF-CEM leukemia, in the test with EKVX NSCLC, with MALME-3M melanoma, in the test on OVCAR-3 ovarian, with SK-MEL-28 melanoma and in the test with SN12C renal was more than 100 µM in each case. Besides, the TGI with SNB-19 CNS, with SW-620 colon and with U251 CNS was more than 100 µM each time.
On to `CCN(CC)CCNc1ccc2ncn3c4ccc(O)cc4c(=O)c1c23`, for which the TGI was determined as 16.5 µM with CCRF-CEM leukemia; 21.9 µM in the test on EKVX NSCLC; 15.8 µM with MALME-3M melanoma; 12.6 µM in the test on MCF7 breast; 16.1 µM in the test with NCI/ADR-RES ovarian; 13.6 µM in the test with OVCAR-3 ovarian. Besides, the TGI in the test with SK-MEL-28 melanoma was 21.8 µM; in the test with SN12C renal, 15.1 µM; in the test with SNB-19 CNS, 19.2 µM; in the test on SW-620 colon, 8.84 µM; in the test on U251 CNS it was 2.75 µM.
As for `O=C(CSCC(=O)N/N=C/c1cccc(O)c1)N/N=C/c1cccc(O)c1`, the TGI with EKVX NSCLC, in the test with MALME-3M melanoma, in the test with MCF7 breast, with NCI/ADR-RES ovarian, in the test with OVCAR-3 ovarian and with SK-MEL-28 melanoma was more than 100 µM each time. Also, the TGI in the test on SN12C renal, with SNB-19 CNS, in the test with SW-620 colon and in the test on U251 CNS was more than 100 µM in each case.
As for `O=C1c2ccccc2C(=O)c2[nH]cnc21`, the TGI was more than 100 µM in the test with CCRF-CEM leukemia; more than 100 µM in the test on EKVX NSCLC; 57.3 µM in the test with MALME-3M melanoma; 66.2 µM in the test with OVCAR-3 ovarian; more than 100 µM in the test on SK-MEL-28 melanoma; more than 100 µM in the test on SN12C renal. Moreover, the TGI with SNB-19 CNS and in the test on U251 CNS was more than 100 µM throughout.
In the case of `O=C1c2cc(O)c(O)cc2O[C@H](c2ccc(O)c(O)c2)[C@H]1O`, the TGI in the test with CCRF-CEM leukemia, in the test on EKVX NSCLC, in the test on MCF7 breast, in the test with NCI/ADR-RES ovarian, with OVCAR-3 ovarian and with SK-MEL-28 melanoma was more than 100 µM each time. For the same compound, the TGI with SN12C renal, with SNB-19 CNS, in the test on SW-620 colon and in the test with U251 CNS was more than 100 µM each time.
Turning to `O=C1c2cc3c(cc2-c2c1c1ccc(Cl)cc1c(=O)n2C[C@H](O)CO)OCO3`, the GI50 was less than 0.01 µM in the test on CCRF-CEM leukemia; 0.153 µM in the test on EKVX NSCLC; less than 0.01 µM in the test with MCF7 breast; 0.0322 µM in the test with NCI/ADR-RES ovarian; 0.0615 µM in the test on OVCAR-3 ovarian; 0.2 µM in the test with SK-MEL-28 melanoma. For the same compound, the figures for the GI50 in the test with SW-620 colon and with U251 CNS were 0.02 µM and 0.0198 µM, respectively. Moreover, the TGI in the test on CCRF-CEM leukemia stood at 24.2 µM; in the test with EKVX NSCLC it was 1.52 µM; with MCF7 breast, 0.759 µM; in the test on NCI/ADR-RES ovarian, 1.12 µM; with OVCAR-3 ovarian, 0.316 µM; with SK-MEL-28 melanoma, 1.28 µM. Also, the TGI in the test with SW-620 colon was 1.02 µM; in the test on U251 CNS it was 1.28 µM.
Turning to `Oc1ccc(C(=C(Br)c2ccccc2)c2ccc(O)cc2)cc1`, the TGI was determined as 32.3 µM with CCRF-CEM leukemia; 26.2 µM with EKVX NSCLC; 18 µM in the test on MALME-3M melanoma; 12.4 µM in the test with MCF7 breast; 12.6 µM in the test with NCI/ADR-RES ovarian; 8.99 µM in the test with OVCAR-3 ovarian. Further, the TGI was 24 µM in the test on SK-MEL-28 melanoma; 18.9 µM with SN12C renal; 17.1 µM in the test on SNB-19 CNS; 14.9 µM with SW-620 colon; 15.3 µM in the test with U251 CNS.
For `C=CCNC(=O)C(C)C1CCC2(C)C=CC(=O)C(C)=C2C1O` (configuration not stated), the TGI with CCRF-CEM leukemia, with EKVX NSCLC, with MCF7 breast, in the test with NCI/ADR-RES ovarian, in the test with OVCAR-3 ovarian and with SK-MEL-28 melanoma was more than 100 µM each time. For the same compound, the TGI in the test with SN12C renal, with SNB-19 CNS, in the test on SW-620 colon and in the test with U251 CNS was more than 100 µM throughout.

(Values after PubChem BioAssay (NCI).)
